# Legend:
# mice [1] = assay: Acute locomotor activity; format: in vivo, mouse; conditions: for most effective dose for locomotor activation (inverted U) / effect on locomotion: sc; for effect on locomotion: after 60 minutes of habituation, (S)-MTD up to 100 mg/kg
# rats [2] = assay: Intravenous self-administration; format: in vivo, rat; conditions: for acquisition of IVSA in dose finding experiments: rats, (R)-MTD at 50 μg/kg/infusion, (S)-MTD even at high unit doses; for shape of IVSA dose-response / unit dose with peak infusion rates in IVSA dose response: trained rats
# rats [3] = assay: Hotplate analgesia; format: in vivo, rat
# mice [4] = assay: Psychomotor sensitization, repeated injections in open-field chambers; format: in vivo, mouse; conditions: for psychomotor sensitization: ip, three days, (R)-MTD 2, 5, 10, (R,S)-MTD 4, 10, 20, (S)-MTD 20, 30, 40 mg/kg
# rats [5] = assay: Catalepsy score; format: in vivo, rat
# [6] = test system: extracellular dopamine in rat VTA; assay: In vivo microdialysis, perfusion into VTA, somatodendritic dopamine release; conditions: for effect on extracellular dopamine: local perfusion, (S)-MTD up to 100 μM
# SERT = SERT (Homo sapiens, UniProt P31645); assay: Receptor and enzyme competitive screen; format: binding; conditions: 100 nM
# Chain of SERT (P31645 whole entry, species assumed): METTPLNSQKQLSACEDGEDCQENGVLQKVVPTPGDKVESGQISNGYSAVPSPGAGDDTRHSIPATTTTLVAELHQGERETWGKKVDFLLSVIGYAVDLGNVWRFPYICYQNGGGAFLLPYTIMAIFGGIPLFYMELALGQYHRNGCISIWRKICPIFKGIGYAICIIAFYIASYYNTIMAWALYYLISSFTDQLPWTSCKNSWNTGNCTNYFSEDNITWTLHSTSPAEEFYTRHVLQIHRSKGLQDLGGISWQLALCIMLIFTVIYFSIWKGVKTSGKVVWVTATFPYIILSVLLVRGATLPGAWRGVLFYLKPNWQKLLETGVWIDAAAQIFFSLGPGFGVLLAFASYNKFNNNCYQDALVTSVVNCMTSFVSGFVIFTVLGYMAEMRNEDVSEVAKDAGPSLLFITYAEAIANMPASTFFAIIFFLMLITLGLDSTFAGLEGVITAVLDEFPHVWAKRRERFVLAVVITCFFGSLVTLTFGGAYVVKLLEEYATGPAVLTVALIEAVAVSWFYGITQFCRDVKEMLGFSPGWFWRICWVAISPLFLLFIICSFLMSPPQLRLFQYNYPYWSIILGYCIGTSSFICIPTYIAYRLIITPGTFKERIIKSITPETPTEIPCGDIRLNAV
# NMDARs = conditions: ref [10], cited from earlier work
structure (smiles),measurement,setting,value
CCC(=O)C(C[C@@H](C)N(C)C)(c1ccccc1)c1ccccc1 [(R)-MTD],most effective dose for locomotor activation (inverted U),mice [1],3 mg/kg
same,effect on locomotion,mice [1],increased locomotion
same,maximum consumed at the highest dose in IVSA,"rats [2]; rats exposed to (R)-MTD, dose finding",~ 2 mg/kg
same,acquisition of IVSA in dose finding experiments,rats [2],readily self-administered
same,shape of IVSA dose-response,rats [2],inverted-U shaped dose-response curve
same,unit dose with peak infusion rates in IVSA dose response,rats [2],0.025 mg/kg
same,hotplate ED50 (%MPE),rats [3],0.5 mg/kg
same,hotplate agonist profile,rats [3],full agonistic activity
same,psychomotor sensitization,mice [4],produced psychomotor sensitization at 10 mg/kg
same,cataleptic ED50 (%MPE),rats [5],0.9 mg/kg
same,dose at which maximal cataleptic effects were observed,rats [5],3 mg/kg
same,effect on extracellular dopamine,[6],concentration-dependent increase in extracellular dopamine
same,inhibition of binding at SERT,SERT,68%
"CCC(=O)C(CC(C)N(C)C)(c1ccccc1)c1ccccc1 (racemic) [(R,S)-MTD, (R,S)-methadone]",most effective dose for locomotor activation (inverted U),mice [1],10 mg/kg
same,effect on locomotion,mice [1],increased locomotion
same,shape of IVSA dose-response,rats [2],inverted-U shaped dose-response curve
same,unit dose with peak infusion rates in IVSA dose response,rats [2],0.05 mg/kg
same,hotplate ED50 (%MPE),rats [3],1.2 mg/kg
same,hotplate agonist profile,rats [3],full agonistic activity
same,psychomotor sensitization,mice [4],failed to show sensitization at any dose
same,cataleptic ED50 (%MPE),rats [5],2.1 mg/kg
same,dose at which maximal cataleptic effects were observed,rats [5],10 mg/kg
"CCC(=O)C(C[C@H](C)N(C)C)(c1ccccc1)c1ccccc1 [(S)-MTD, (S)-methadone]","effect on locomotor-stimulating effect of (R)-MTD (10 mg/kg, sc)","mice [1]; (S)-MTD 10, 30 mg/kg sc, 15 min before (R)-MTD",dose-dependently counteracted
same,effect on locomotion,mice [1],did not produce any significant locomotor-activating effects
same,"affinity for the MOR, times greater than affinity for the NMDAR",NMDARs; [15],~ 300 times
same,affinity at NMDARs,NMDARs,2.6 to 7.4 µM
same,IVSA in (R)-MTD-trained rats switched to (S)-MTD,rats [2]; 500 μg/kg/infusion,reliable IVSA
same,cumulative dose consumed at the highest dose in IVSA,rats [2]; (R)-MTD-trained rats switched to (S)-MTD,~ 30 mg/kg
same,acquisition of IVSA in dose finding experiments,rats [2],never acquired IVSA
same,shape of IVSA dose-response,rats [2],no evidence of dose response
same,hotplate agonist profile,rats [3],full agonistic activity
same,"effect of pretreatment on (R)-MTD-induced (10 mg/kg, ip) sensitization",mice [4]; (S)-MTD 10 or 30 mg/kg,did not prevent psychomotor sensitization
same,psychomotor sensitization,mice [4],failed to show sensitization at any dose
same,catalepsy score agonist profile,rats [5]; up to 100 mg/kg,partial agonist
same,effect on (R)-MTD (10 μM)-induced dopamine release,"[6]; co-perfusion, (S)-MTD 100 μM",completely counteracted
same,effect on extracellular dopamine,[6],did not induce any significant effect

# From paper PMC11221360 (Molecular psychiatry, 2023)
